Data on one compound can be found in US12187770B2, “Cyclic peptide from novel bone morphogenetic protein 2, preparation method therefor and application thereof” (Hangzhou Huibo Science and Technology Co., Ltd, priority 2019, dated 2025).

Bridge positions count the residues as written; N and C are the ends. Peptide text beside a SMILES is read from it.

The nature of this series: Acute toxicity in animals. Particulars: in vivo.

Regarding `CC[C@H](C)[C@@H]1NC(=O)[C@H](C)NC(=O)[C@H](CO)NC(=O)[C@H](CC(C)C)NC(=O)[C@H](CCC(=O)O)NC(=O)[C@H]([C@@H](C)O)NC(=O)[C@@H]2CCCN2C(=O)[C@H](C(C)C)NC(=O)[C@H](CO)NC(=O)[C@H](CO)NC(=O)[C@H](C)NC(=O)[C@H](CCCCN)NC(=O)[C@@H]2CCCN2C(=O)[C@H]([C@@H](C)CC)NC(=O)[C@H](CCCCN)NC(=O)[C@@H](N)CSSC[C@@H](C(=O)O)NC(=O)[C@H](C)NC(=O)[C@H](C(C)C)NC(=O)[C@H]([C@@H](C)CC)NC(=O)[C@H](Cc2c[nH]c3ccccc23)NC(=O)[C@H](CC(=O)O)NC(=O)CNC(=O)CNC(=O)[C@@H]2CCCN2C(=O)CNC(=O)[C@H](CC(C)C)NC(=O)[C@H](Cc2ccc(O)cc2)NC(=O)[C@H](CC(C)C)NC(=O)[C@H](CCSC)NC(=O)[C@H](CO)NC1=O` [M-C-BMP2] (H-CKIPKASSVPTELSAISMLYLGPGGDWIVAC-OH; disulfide 1-31), the “acute toxicity in animals” value is “has not been found to have acute toxicity in animals”.
